Laboratory results reported in patent publication US9708336B2, “Metallo-beta-lactamase inhibitors” (priority 2014, dated 2017).
Where two headings read alike, the source gives them in different places.

How the values were obtained:
[1] = molecular target: VIM-1 (Pseudomonas aeruginosa (strain ATCC 15692 / DSM 22644 / CIP 104116 / JCM 14847 / LMG 12228 / 1C / PRS 101 / PAO1), UniProt A0A0F7KYQ8); assay: Enzyme activity: determination of IC50, fluorescence assay with CCF2-FA substrate (VIM-1); assay type: biochemical; details: read-out: VIM-1 IC50
[2] = molecular target: NDM-1 (Klebsiella pneumoniae, UniProt C7C422); assay: biochemical; assay type: biochemical
[3] = test system: Serratia marcescens expressing IMP-1 (CL5741); assay: Antibiotic potentiation activity: synergistic concentration (MITC95) with imipenem, OD600 growth; assay type: cell-based; details: for Serratia marcescens expressing IMP-1 (CL5741) MITC95: concentration giving 95% inhibition of bacterial growth; for Serratia marcescens MITC95: Serratia marcescens expressing IMP-1 (CL5741), 95% growth inhibition
Outline: (§1)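 Overnight colonies (35 °C) were suspended in saline, diluted 1:100 into 1.1× CAMHB, and exposed to test compound with imipenem at 4 μg/ml (optionally 1 μg/ml) in assay. After 22–24 h at 35 °C, growth was read by absorbance.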

[4] = test system: Klebsiella pneumoniae expressing VIM-1 (IHMA599644); assay: as above; assay type: cell-based; details: for Klebsiella pneumoniae expressing VIM-1 (IHMA 599644) MITC95: concentration giving 95% inhibition of bacterial growth; for Klebsiella pneumoniae MITC95: Klebsiella pneumoniae expressing VIM-1 (IHMA599644), 95% growth inhibition
Outline: as §1

[5] = test system: Escherichia coli expressing NDM-1 (CLB30005); assay: as above; assay type: cell-based; details: for Escherichia coli expressing NDM-1 (CLB 30005) MITC95: concentration giving 95% inhibition of bacterial growth; for Escherichia coli MITC95: Escherichia coli expressing NDM-1 (CLB30005), 95% growth inhibition
Outline: as §1

[6] = molecular target: IMP-1 (Serratia marcescens, UniProt P52699); assay: biochemical; assay type: biochemical
[7] = fluorescence assay with CCF2-FA substrate
[8] = fluorescence assay with CCF2-FA substrate, read-out: NDM-1 IC50
[9] = fluorescence assay with CCF2-FA substrate, read-out: IMP-1 IC50
[10] = VIM-1 enzyme, CCF2-FA fluorescence assay
[11] = NDM-1 enzyme, CCF2-FA fluorescence assay, read-out: NDM-1 IC50
[12] = IMP-1 enzyme, CCF2-FA fluorescence assay, read-out: IMP-1 IC50

Sequence of NDM-1 (C7C422 whole entry, looked up, species assumed): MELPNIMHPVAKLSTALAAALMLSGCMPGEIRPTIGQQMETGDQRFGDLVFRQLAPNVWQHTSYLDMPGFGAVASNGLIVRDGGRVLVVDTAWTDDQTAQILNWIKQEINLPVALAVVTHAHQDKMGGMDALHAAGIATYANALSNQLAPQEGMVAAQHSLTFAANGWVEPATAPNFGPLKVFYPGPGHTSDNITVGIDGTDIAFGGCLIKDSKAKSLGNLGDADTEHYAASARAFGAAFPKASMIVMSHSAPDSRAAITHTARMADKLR
Sequence of IMP-1 (P52699 whole entry, looked up): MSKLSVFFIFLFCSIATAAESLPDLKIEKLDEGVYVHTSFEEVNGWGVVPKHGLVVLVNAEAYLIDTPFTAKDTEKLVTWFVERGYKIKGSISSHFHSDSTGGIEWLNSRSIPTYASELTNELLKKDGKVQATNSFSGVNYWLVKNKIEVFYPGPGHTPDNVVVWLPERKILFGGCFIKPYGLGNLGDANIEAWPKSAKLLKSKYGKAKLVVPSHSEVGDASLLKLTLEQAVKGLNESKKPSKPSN

Compound | IC50 [1, 7] | IC50 [2, 8] | Serratia marcescens expressing IMP-1 (CL5741) MITC95 [3] | Klebsiella pneumoniae expressing VIM-1 (IHMA 599644) MITC95 [4] | Escherichia coli expressing NDM-1 (CLB 30005) MITC95 [5] | IC50 [6, 9] | IC50 [1, 10] | IC50 [2, 11] | Serratia marcescens MITC95 [3] | Klebsiella pneumoniae MITC95 [4] | Escherichia coli MITC95 [5] | IC50 [6, 12] | IC50 [2] | IC50 [6]
NS(=O)(=O)c1cccc(-c2ccc3c(c2)OCCO3)c1-c1nn[nH]n1 [Example 56, 3-(2,3-dihydro-1,4-benzodioxin-6-yl)-2-(2H-tetrazol-5-yl)benzenesulfonamide] | 44 nM | 1.83 nM | 14.06 µM | 200 µM | 2.344 µM | 13.2 nM |  |  |  |  |  |  |  | 
CS(=O)(=O)c1ccc(-c2cccc(S(N)(=O)=O)c2-c2nn[nH]n2)cn1 [Example 58, 3-[6-(methylsulfonyl)pyridin-3-yl]-2-(2H-tetrazol-5-yl)benzenesulfonamide] | 190 nM | 14.5 nM | 12.5 µM | 100 µM | 0.5859 µM | 227 nM |  |  |  |  |  |  |  | 
CS(=O)(=O)Nc1cccc(-c2cccc(S(N)(=O)=O)c2-c2nn[nH]n2)c1 [Example 86, 3′-[(methylsulfonyl)amino]-2-(2H-tetrazol-5-yl)biphenyl-3-sulfonamide] | 1070 nM | 11 nM | 3.125 µM | 200 µM | 0.7813 µM | 67.4 nM |  |  |  |  |  |  |  | 
Cc1ccc(-c2cc(-c3cccnc3)cc(S(N)(=O)=O)c2-c2nn[nH]n2)cc1 [Example 293, 4′-methyl-5-(pyridin-3-yl)-2-(2H-tetrazol-5-yl)-[1,1′-biphenyl]-3-sulfonamide] |  |  |  |  |  |  | 232 nM | 1.02 nM | 9.375 µM | >200 µM | 1.953 µM | 86.5 nM |  | 
Cn1ncc2cc(-c3cccc(S(N)(=O)=O)c3-c3nn[nH]n3)ccc21 [Example 68, 3-(1-methyl-1H-indazol-5-yl)-2-(2H-tetrazol-5-yl)benzenesulfonamide] | 33.7 nM | 1.99 nM | 12.5 µM | 75 µM | 2.344 µM | 81.9 nM |  |  |  |  |  |  |  | 
Cc1ccc(-c2cc(-c3ccc(O)nc3)cc(S(N)(=O)=O)c2-c2nn[nH]n2)cc1 [Example 292, 5-(6-hydroxypyridin-3-yl)-4′-methyl-2-(2H-tetrazol-5-yl)-[1,1′-biphenyl]-3-sulfonamide] |  |  |  |  |  |  | 193 nM | 3.65 nM | 18.75 µM | >200 µM | 3.516 µM | 416 nM |  | 
NS(=O)(=O)c1nccc(-c2ccc3[nH]ncc3c2)c1-c1nn[nH]n1 [Example 199, 4-(1H-indazol-5-yl)-3-(2H-tetrazol-5-yl)pyridine-2 sulfonamide] | 24.8 nM | 13 nM | 6.25 µM | 3.125 µM | 0.3906 µM | 325 nM |  |  |  |  |  |  |  | 
CC(c1ccc(-c2cccc(S(N)(=O)=O)c2-c2nn[nH]n2)cc1)N1CCOCC1 (stereo not drawn) [Example 4, 4′-(1-morpholin-4-ylethyl)-2-(2H-tetrazol-5-yl)biphenyl-3-sulfonamide] | 196 nM | 2.84 nM | 6.25 µM | >200 µM | 0.7813 µM | 11.3 nM |  |  |  |  |  |  |  | 
NCCc1ccc(-c2cccc(S(N)(=O)=O)c2-c2nnn[nH]2)cc1 [Example 300, 4′-(2-aminoethyl)-2-(1H-tetrazol-5-yl)-[1,1′-biphenyl]-3-sulfonamide] |  |  |  |  |  |  | 31.5 nM | 37.2 nM | 12.5 µM | 9.375 µM | 1.172 µM | 373 nM |  | 
Cc1ccc(-c2cccc(S(N)(=O)=O)c2-c2nnn[nH]2)nc1 [Example 398, 3-(5-Methylpyridin-2-yl)-2-(1H-tetrazol-5-yl)benzenesulfonamide] |  |  |  |  |  |  | 312 nM | 43 nM | 50 µM | 100 µM | 1.563 µM | 1210 nM |  | 
NS(=O)(=O)c1cccc(-c2ccc(S(=O)(=O)NC3CC3)cc2)c1-c1nn[nH]n1 [Example 60, N~4~′-cyclopropyl-2-(2H-tetrazol-5-yl)biphenyl-3,4′-disulfonamide] | 27.8 nM | 3.17 nM | 4.688 µM | 75 µM | 3.906 µM | 16.5 nM |  |  |  |  |  |  |  | 
CC(CO)Oc1ccc(-c2cccc(S(N)(=O)=O)c2-c2nn[nH]n2)cc1 (stereo not drawn) [Example 6, 4′-(2-hydroxy-1-methylethoxy)-2-(2H-tetrazol-5-yl)biphenyl-3-sulfonamide] | 42.3 nM |  | 50 µM | >200 µM | 1.563 µM |  |  |  |  |  |  |  | 1.96 nM | 39.6 nM
NS(=O)(=O)c1cccc(-c2ccc(CO)nc2)c1-c1nnn[nH]1 [Example 258, 3-(6-(Hydroxymethyl)pyridin-3-yl)-2-(1H-tetrazol-5-yl)benzenesulfonamide] |  |  |  |  |  |  | 147 nM | 12.9 nM | 37.5 µM | 15.63 µM | 1.302 µM | 888 nM |  | 
NS(=O)(=O)c1nccc(-c2ccc(C3CCNCC3)cc2)c1-c1nnn[nH]1 [Example 197, 4-(4-(piperidin-4-yl)phenyl)-3-(1H-tetrazol-5-yl)pyridine-2-sulfonamide] | 70.2 nM | 130 nM | 1.563 µM | 1.563 µM | 0.3906 µM | 582 nM |  |  |  |  |  |  |  | 
COC1CCN(C(=O)c2ccc(-c3cccc(S(N)(=O)=O)c3-c3nn[nH]n3)cc2)CC1 [Example 51, 4′-[(4-methoxypiperidin-1-yl)carbonyl]-2-(2H-tetrazol-5-yl)biphenyl-3-sulfonamide] | 4190 nM | 2.74 nM | 31.25 µM | >200 µM | 9.375 µM | 27.4 nM |  |  |  |  |  |  |  | 
Cc1ccc(-c2cc(-c3cccc(C(N)=O)c3)cc(S(N)(=O)=O)c2-c2nn[nH]n2)cc1 [Example 295, 4″-methyl-5′-sulfamoyl-4′-(2H-tetrazol-5-yl)-[1,1′:3′,1″-terphenyl]-3-carboxamide] |  |  |  |  |  |  | 126 nM | 0.637 nM | 1.563 µM | >200 µM | 1.953 µM | 16.1 nM |  | 
NS(=O)(=O)c1cccc(-c2ccc3c(=O)nc[nH]c3c2)c1-c1nn[nH]n1 [Example 69, 3-(4-oxo-1,4-dihydroquinazolin-7-yl)-2-(2H-tetrazol-5-yl)benzenesulfonamide] | 26.4 nM | 5.05 nM | 18.75 µM | 25 µM | 0.7813 µM | 237 nM |  |  |  |  |  |  |  | 
